Experimental data taken from PMC2917805 (Journal of medicinal chemistry, 2010).

Tests used:
[1] = test system: HL-60 human acute leukemia cells; experiment: Cell cycle analysis, subG1 accumulation; type: cell-based
[2] = Stability in RPMI 1640 cell culture medium; type: physicochemical
iNOS protein expression = experiment: Western blot of iNOS expression in LPS-stimulated RAW 264.7 cells; type: cell-based; details: 34 μM; for effect on iNOS protein expression: LPS-stimulated RAW 264.7 cells; for relative iNOS protein expression: relative to LPS-treated control, LPS 1 μg/mL, 18 h
[3] = DPPH free-radical scavenging
[4] = test system: quinone reductase 1 (QR1); experiment: QR activity in cell culture; type: cell-based, murine; details: Hepa 1c1c7 cells
[5] = cell culture medium, 37 °C, 24 h

For `Oc1ccc(/C=C/c2cc(O)cc(O)c2)cc1` [Resveratrol, 3,5,4′-trihydroxystilbene, reference compound], the “accumulation of HL-60 cells in subG1” value [1] was “active”, the remaining at 0 h ([2]; RPMI 1640 cell culture medium) was 100 ± 0.3% and the remaining at 24 h ([2]; RPMI 1640 cell culture medium) was 46.8 ± 8.7%. The “degradation during 24 h” value [2, 5] was ~ 50% and the “effect on iNOS protein expression” value (iNOS protein expression) was “moderately suppressed the expression of iNOS”.
In the case of `O=S(=O)([O-])Oc1ccc(/C=C/c2cc(OS(=O)(=O)[O-])cc(OS(=O)(=O)[O-])c2)cc1.[K+].[K+].[K+]` [compound 2, Resveratrol Tripotassium 3,5,4′-Sulfate], the “DPPH free radical scavenging” value [3] is reported as “inactive” and the “QR1 CD (concentration to double the expression of QR1)” value (shortened to “QR1 CD”) [4] is reported as > 11.7 µM.
With `O=S(=O)([O-])Oc1ccc(/C=C/c2cc(O)cc(OS(=O)(=O)[O-])c2)cc1.[K+].[K+]` [compound 3, Resveratrol Dipotassium 3,4′-Sulfate] the “QR1 CD” value [4] was > 10.1 µM.
With `O=S(=O)([O-])Oc1cc(/C=C/c2ccc(O)cc2)cc(OS(=O)(=O)[O-])c1.[K+].[K+]` [compound 4, Resveratrol Tripotassium 3,5-Sulfate] the “QR1 CD” value [4] was > 10.1 µM.
With `O=S(=O)([O-])Oc1cc(O)cc(/C=C/c2ccc(O)cc2)c1.[K+]` [compound 5, Resveratrol Potassium 3-Sulfate] the “effect on iNOS protein expression” value (iNOS protein expression) was “moderately suppressed the expression of iNOS” and the “relative iNOS protein expression” value (iNOS protein expression) was 0.54.
In the case of `O=S(=O)([O-])Oc1ccc(/C=C/c2cc(O)cc(O)c2)cc1.[K+]` [compound 7, Resveratrol Potassium 4′-Sulfate], the “QR1 CD” value [4] is reported as > 6.9 µM, the remaining at 0 h ([2]; buffer) is reported as 100 ± 2.2% and the remaining at 12 h ([2]; buffer) is reported as 95.1 ± 3%. For the same compound, the remaining at 24 h ([2]; buffer) was 98.8 ± 3.1%, the “stability” value [2, 5] was “stable for 24 h” and the “effect on iNOS protein expression” value (iNOS protein expression) was “moderately suppressed the expression of iNOS”. The “relative iNOS protein expression” value (iNOS protein expression) was 0.67.
